Measurements as given in patent publication US20160095837A1, “MODULATION OF MITOCHONDRIAL CALCIUM UNIPORTER ACTIVITY FOR TREATING AND PREVENTING ARRHYTHMIAS” (priority 2014, published 2016).

System: mitochondrial Ca2+ concentration ([Ca2+]mito)
Assay: Mitochondrial Ca2+ measurement with mt-pericam in cultured SAN cells
Format: cell-based, mouse
Settings: Ru360 dialysis
Experimental: SAN cells were placed in Tyrode's solution at 36±0.5° C. and were identified by their characteristic morphology (spindle or spider shape) and spontaneous activity. SAN cells were identified electrophysiologically by spontaneous action potentials with a slow depolarizing phase 4 and the hyperpolarization-activated current (If).^27 Spontaneous action potentials, If and ICa were recorded using the perforated (amphotericin B or β-escin in studies requiring dialysis of Ru360 and/or ATP) patch-clamp technique^28 on single SAN cells at 36±0.5° C. in Tyrode's solution. Intracellular Ca^2+ transients were recorded from single SAN cells using Fura-2 AM excited at 340 nm and 380 nm and emitted and 510 nm. Endogenous NADH from single SAN cells was measured by excitation at 350 nm and recording emitted light at 460 nm.^29 Mitochondrial Ca^2+ was measured at 535 nm from mt-pericam expressing SAN cells exited at 415 nm^20. Mitochondrial Ca^2+ entry was measured in cell membrane permeabilized cardiomyocytes isolated from DN-MCU transgenic, wild type mice and from HEK293 cells using Calcium green-5N^30.
Freshly isolated mouse SAN tissue was cut into small pieces and put into 35 mm tissue culture plates with DMEM. […] Expression of the recombinant ratio-5mt-pericam and DN-MCU in SAN cells was detected by GFP fluorescence. […]

Substance: (μ)[(HCO2)(NH3)4Ru]2OCl3) [Ru360]
- ISO-induced increase in [Ca2+]mito: prevented
